Laboratory results reported in patent EP4063344A1, “SALT OF 2-ADAMANTYL ACETIC ACID HAVING ANTI-VIRAL ACTIVITY, FORMULATIONS THEREOF AND USES THEREOF” (Sciamannini, Umbro, priority 2021, dated 2022).

Tested on: viral and/or fungal and/or bacterial
Settings: no test conditions given

## 1-hexadecanaminium, N,N,N,trimethyl-tricyclo[3.3.1.13,7]decane-2-acetate(1:1) [salt of the invention]
  viral and/or fungal and/or bacterial inhibition action: greater than 4 log
